How the values were obtained:
[1] = test system: inflammation index (Inflammation Gene Expression Panel loci); test: Inflammation index in rheumatoid arthritis patients under therapy; format: in vivo, human
Text: FIG. 17A further illustrates the consistency of inflammatory gene expression, illustrated here with respect to 7 loci of (of the Inflammation Gene Expression Panel of Table 1), in a population of 44 normal, undiagnosed blood donors. For each individual locus is shown the range of values lying within ±2 standard deviations of the mean expression value, which corresponds to 95% of a normally distributed population. Notwithstanding the great width of the confidence interval (95%), the measured gene expression value (ΔCT)—remarkably—still lies within 10% of the mean, regardless of the expression level involved. As described in further detail below, for a given biological condition an index can be constructed to provide a measurement of the condition. This is possible as a result of the conjunction of two circumstances: (i) there is a remarkable consistency of Gene Expression Profiles with respect to a biological condition across a population and (ii) there can be employed procedures that provide substantially reproducible measurement of constituents in a Gene Expression Panel giving rise to a Gene Expression Profile, under measurement conditions wherein specificity and efficiencies of amplification for all constituents of the panel are substantially similar and which therefore provides a measurement of a biological condition. Accordingly, a function of the expression values of representative constituent loci of FIG. 17A is here used to generate an inflammation index value, which is normalized so that a reading of 1 corresponds to constituent expression values of healthy subjects, as shown in the right-hand portion of FIG. 17A.
In FIG. 17B, an inflammation index value was determined for each member of a population of 42 normal undiagnosed blood donors, and the resulting distribution of index values, shown in the figure, can be seen to approximate closely a normal distribution, notwithstanding the relatively small population size. The values of the index are shown relative to a 0-based median, with deviations from the median calibrated in standard deviation units. Thus […] of the population lies within +1 and −1 of a 0 value.
FIG. 17C illustrates the use of the same index as FIG. 17B, where the inflammation median for a normal population has been set to zero and both normal and diseased subjects are plotted in standard deviation units relative to that median. An inflammation index value was determined for each member of a normal, undiagnosed population of 70 individuals (black bars). The resulting distribution of index values, shown in FIG. 17C, can be seen to approximate closely a normal distribution. Similarly, index values were calculated for individuals from two diseased population groups, (1) rheumatoid arthritis patients treated with methotrexate (MTX) who are about to change therapy to more efficacious drugs (e.g., TNF inhibitors) (hatched bars), and (2) rheumatoid arthritis patients treated with disease modifying anti-rheumatoid drugs (DMARDS) other than MTX, who are about to change therapy to more efficacious drugs (e.g., MTX). […] This figure thus illustrates the utility of an index to derived from Gene Expression Profile data to evaluate disease status and to provide an objective and quantifiable treatment objective. When these two populations were treated appropriately, index values from both populations returned to a more normal distribution (data not shown here).
This subject in fact was also on a regimen of an anti-inflammation steroid (prednisone) that was being tapered; within approximately one week after the inflammation index was sampled, the subject experienced a significant flare of clinical symptoms.

[2] = test system: Inflammation Gene Expression Panel of Table 1 (24 of 48 loci); test: Inflammation Gene Expression Panel in whole blood after single oral dose of prednisone; format: in vivo; details: single human subject, single 60 mg oral dose
Text: (§1) For measuring the amount of a particular RNA in a sample, we have used methods known to one of ordinary skill in the art to extract and quantify transcribed RNA from a sample with respect to a constituent of a Gene Expression Panel. (See detailed protocols below. Also see PCT application publication number WO 98/24935 herein incorporated by reference for RNA analysis protocols). Briefly, RNA is extracted from a sample such as a tissue, body fluid, or culture medium in which a population of a subject might be growing. For example, cells may be lysed and RNA eluted in a suitable solution in which to conduct a DNAse reaction. First strand synthesis may be performed using a reverse transcriptase. Gene amplification, more specifically quantitative PCR assays, can then conducted and the gene of interest size calibrated against a marker such as 18S rRNA (Hirayama et al., Blood 92, 1998: 46-52). Samples are measured in multiple duplicates, for example, 4 replicates. Relative quantitation of the mRNA is determined by the difference in threshold cycles between the internal control and the gene of interest In an embodiment of the invention, quantitative PCR is performed using amplification, reporting agents and instruments such as those supplied commercially by Applied Biosystems (Foster City, Calif.). […]

[3] = test system: IL1A, IL1B, TNF, IFNG and IL10; test: Acute Inflammation Index from whole blood gene expression of treated human subject; format: in vivo; details: single patient with optic neuritis; oral prednisone at 60 mg per day tapered to 10 mg per day, after IV steroid
Text: as §1

[4] = test system: 5 genes of the Inflammation Gene Expression Panel; test: Whole blood samples after prednisone dose, challenged with lipopolysaccharide, gene expression profile; format: in vivo, human; details: challenged with 0.1 ng/ml lipopolysaccharide
Description: The samples were taken at the time of administration (t=0) of the prednisone, then at two and 24 hours after such administration. Each whole blood sample was challenged by the addition of 0.1 ng/ml of lipopolysaccharide (a Gram-negative endotoxin) and a gene expression profile of the sample, post-challenge, was determined.

[5] = test system: inflammation index (Inflammation Gene Expression Panel loci); details: studies have shown; cited from earlier work
[6] = test system: inflammation index (Inflammation Gene Expression Panel loci); test: Inflammation index in subject with inflammatory bowel disease; format: in vivo, human; details: single subject with inflammatory bowel disease
Text: FIG. 24 illustrates use of the inflammation index for assessment of a single subject suffering from inflammatory bowel disease, for whom treatment with Remicade was initiated in three doses. […] Again, the index, besides providing a measure of biological condition, is here used to measure the effectiveness of therapy (Remicade), as well as to provide a target for therapeutic intervention in terms of both dose and schedule.

[7] = test system: Inflammation 48A and 48B loci; bacterial Gene Expression Panel of 24 genes; test: Whole blood gene expression response to infectious agents or their products; format: cell-based; details: E. coli filtrate with added polymyxin B vs filtrate alone
Text: FIGS. 27 through 41 illustrate the use of gene expression panels in early identification and monitoring of infectious disease. These figures plot the response, in expression products of the genes indicated, in whole blood, to the administration of various infectious agents or products associated with infectious agents. In each figure, the gene expression levels are “calibrated”, as that term is defined herein, in relation to baseline expression levels determined with respect to the whole blood prior to administration of the relevant infectious agent. […] The concentration change is shown ratiometrically, and the baseline level of 1 for a particular gene locus corresponds to an expression level for such locus that is the same, monitored at the relevant time after addition of the infectious agent or other stimulus, as the expression level before addition of the stimulus. […]
FIG. 27 uses a novel bacterial Gene Expression Panel of 24 genes, developed to discriminate various bacterial conditions in a host biological system. […] The final concentration immediately after administration of the stimulus was 100 ng/mL, and the ratiometric changes in expression, in relation to pre-administration levels, were monitored for each stimulus 2 and 6 hours after administration. […]
The responses were monitored at 2, 6, and 24 hours after administration. […]

[8] = 10 stable rheumatoid arthritis patients treated with Enbrel (FIG. 22)

For CN(Cc1cnc2nc(N)nc(N)c2n1)c1ccc(C(=O)N[C@@H](CCC(=O)O)C(=O)O)cc1 [methotrexate], the inflammation index ([1]; 10 stable rheumatoid arthritis patients treated with methotrexate (FIG. 21)) was “elevated compared to normal” and the “inflammation index values in comparison to the normal distribution” value ([1]; rheumatoid arthritis patients treated with MTX who are about to change therapy (FIG. 17C)) was “skewed upward”.
With C[C@]12C=CC(=O)C=C1CC[C@@H]1[C@@H]2C(=O)C[C@@]2(C)[C@H]1CC[C@]2(O)C(=O)CO [prednisone] the “inflammatory gene expression relative to baseline” value ([2]; 2 hr post dose) was “decreased expression of most of inflammation-related gene loci”, the “inflammatory gene expression relative to baseline” value ([2]; 24 hr post dose, loci reduced at 2 hours) was “elevated gene expression levels” and the acute inflammation index [3] was “goes up”. For the same compound, the “inhibitory effect on gene expression of the 5 loci” value ([4]; 24 hours post administration) was “no longer apparent”, the “number of the 5 loci with gene expression higher than at t=0 (rebound effect)” value ([4]; 24 hours post administration) was 3 and the “gene expression of the 5 loci in relation to t=0” value ([4]; two-hour sample) was “dramatically reduced gene expression”.
For Enbrel, the inflammation index [1, 8] was “comes much closer to normal” and the “patients with inflammation index in the normal range” value [1, 8] was 80%.
For Remicade: another TNF inhibitor, the inflammation index ([1]; 10 stable rheumatoid arthritis patients treated with Remicade (FIG. 23), all but one of the patients) is given as “at or below normal”, the “inflammation index suggesting immunosuppressive response” value ([1]; two of the 10 rheumatoid arthritis patients treated with Remicade (FIG. 23)) is given as “abnormally low inflammation index” and the “infections in treated subjects” value [5] is given as “associated with serious infections in some subjects”. For the same compound, the inflammation index ([6]; 24 hours after the first treatment) was “returned to the normal range”, the inflammation index ([6]; just prior to the second dose) was “elevated” and the inflammation index ([6]; prior to the third dose) was “in the normal range”.
With polymyxin B the “effect on the response of IL1B locus to E. coli filtrate” value [7] was “did not affect the response”.
